Test results: patent US20260274807A1 (University of Health Sciences and Pharmacy in St. Louis, priority 2023, published 2026)

What was measured:
ERRγ = target: T1, ERRγ (Homo sapiens, UniProt P62508); assay: ERRE luciferase reporter assay in HEK293 cells transfected with pcDNA3.1 ERRγ; format: cell-based; set-up: key to EC50 (ERRγ) μM: * <1 μM; ** 1-5 μM; *** >5 μM; i.a. (inactive); settings: HEK293 cells transfected with ERRE reporter construct and pcDNA3.1 ERRγ; compound for 24 hours; luciferase activity
T1 construct: expressed in transfected cells; host or cells: HEK293
T1 sequence (P62508 1-458): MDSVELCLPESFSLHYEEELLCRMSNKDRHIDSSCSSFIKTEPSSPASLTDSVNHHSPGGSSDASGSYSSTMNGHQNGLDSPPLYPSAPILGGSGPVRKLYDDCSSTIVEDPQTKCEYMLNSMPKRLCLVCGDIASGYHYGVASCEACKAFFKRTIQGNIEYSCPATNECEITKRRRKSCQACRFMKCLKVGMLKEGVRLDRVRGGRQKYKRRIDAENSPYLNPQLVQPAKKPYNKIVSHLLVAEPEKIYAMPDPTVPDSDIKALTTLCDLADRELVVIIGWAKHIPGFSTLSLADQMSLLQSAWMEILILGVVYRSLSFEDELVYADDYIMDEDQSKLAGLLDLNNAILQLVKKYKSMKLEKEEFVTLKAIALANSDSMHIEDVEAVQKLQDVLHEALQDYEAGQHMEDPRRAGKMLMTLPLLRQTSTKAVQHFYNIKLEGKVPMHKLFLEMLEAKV
Protocol: (§1) HEK293 cells were maintained in Dulbecco's modified Eagles medium (DMEM) supplemented with 10% fetal bovine serum at 37° C. under […]. […] Cells were transfected with ERRE reporter construct and pcDNA3.1 ERRα or ERRγ. Twenty-four-hours post-transfection, the cells were treated with vehicle or compound (various concentrations) for 24 hours (4 wells per dose). Luciferase activity was measured using the One-Glo Tox luciferase reporter assay system (Promega) and EC50s were calculated using GraphPad Prism software.

ERRα = target: T2, ERRα (Homo sapiens, UniProt P11474); assay: ERRE luciferase reporter assay in HEK293 cells transfected with pcDNA3.1 ERRα; format: cell-based; set-up: key to EC50 (ERRα) μM: * <1 μM; ** 1-5 μM; *** >5 μM; i.a. (inactive); settings: HEK293 cells transfected with ERRE reporter construct and pcDNA3.1 ERRα; compound for 24 hours; luciferase activity
T2 construct: expressed in transfected cells; host or cells: HEK293
T2 sequence (P11474 1-423): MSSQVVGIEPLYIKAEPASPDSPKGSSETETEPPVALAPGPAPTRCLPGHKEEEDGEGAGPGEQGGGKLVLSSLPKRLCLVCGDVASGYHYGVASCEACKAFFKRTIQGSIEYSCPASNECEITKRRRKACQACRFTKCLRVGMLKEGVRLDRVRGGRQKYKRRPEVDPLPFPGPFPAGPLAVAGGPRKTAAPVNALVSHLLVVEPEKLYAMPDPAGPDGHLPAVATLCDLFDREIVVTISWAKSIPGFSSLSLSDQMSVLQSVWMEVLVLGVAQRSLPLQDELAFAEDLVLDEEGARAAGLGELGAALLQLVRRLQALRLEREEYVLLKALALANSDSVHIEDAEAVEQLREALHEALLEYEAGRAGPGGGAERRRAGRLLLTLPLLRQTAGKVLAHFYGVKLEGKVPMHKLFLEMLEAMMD
Protocol: as §1

Row | SMILES | EC50 (ERRγ) | EC50 (ERRα) | EC50 (ERRγ) μM (ERRγ) | EC50 (ERRα) μM (ERRα)
1 | c1ccc(-c2nnc(-c3ccc4ccccc4n3)o2)cc1 [Entry 14, 2-phenyl-5-(quinolin-2-yl)-1,3,4-oxadiazole] | > 5000 nM | > 5000 nM | – | –
2 | COc1ccc(-c2nnc(-c3ccccc3)o2)c(N)c1 [Entry 71, 5-methoxy-2-(5-phenyl-1,3,4-oxadiazol-2-yl)aniline] | < 1000 nM | < 1000 nM | – | –
3 | COc1ccc(-c2nnc(-c3ccnc4ccccc34)o2)cc1 [Entry 22, 2-(4-methoxyphenyl)-5-(quinolin-4-yl)-1,3,4-oxadiazole] | < 1000 nM | < 1000 nM | – | –
4 | Clc1ccc(-c2nnc(-c3ccccc3)o2)cc1 [Entry 2] | < 1000 nM | < 1000 nM | – | –
5 | O=[N+]([O-])c1ccccc1-c1nnc(-c2ccc(C(F)(F)F)cc2)o1 [Entry 50, 2-(2-nitrophenyl)-5-(4-(trifluoromethyl)phenyl)-1,3,4-oxadiazole] | 1000 to 5000 nM | 1000 to 5000 nM | – | –
6 | COc1ccc(-c2nnc(-c3ccc(C(F)(F)F)cc3)o2)cc1 [Entry 55, 2-(4-methoxyphenyl)-5-(4-(trifluoromethyl)phenyl)-1,3,4-oxadiazole] | – | – | i.a. | i.a.
7 | COc1ccc(-c2nnc(-c3ccc(N(C)C)cc3)o2)cc1 [Entry 21, 4-(5-(4-methoxyphenyl)-1,3,4-oxadiazol-2-yl)-N,N-dimethylaniline] | 1000 to 5000 nM | 1000 to 5000 nM | – | –
8 | FC(F)(F)c1cccc(-c2nnc(-c3ccco3)o2)c1 [Entry 57, 2-(furan-2-yl)-5-(3-(trifluoromethyl)phenyl)-1,3,4-oxadiazole] | 1000 to 5000 nM | < 1000 nM | – | –
9 | Cc1ccc(-c2nnc(-c3ccccc3Cl)o2)cc1 [Entry 40, 2-(2-chlorophenyl)-5-(p-tolyl)-1,3,4-oxadiazole] | < 1000 nM | < 1000 nM | – | –
10 | COc1ccc(-c2nnc(-c3cccc(OC)c3)o2)cc1 [Entry 29, 2-(3-methoxyphenyl)-5-(4-methoxyphenyl)-1,3,4-oxadiazole] | < 1000 nM | < 1000 nM | – | –
11 | Cc1ccc(-c2nnc(-c3ccc(C)o3)o2)cc1 [Entry 32, 2-(5-methylfuran-2-yl)-5-(p-tolyl)-1,3,4-oxadiazole] | < 1000 nM | < 1000 nM | – | –
12 | FC(F)(F)c1cccc(-c2nnc(-c3ccnc4ccccc34)o2)c1 [Entry 59, 2-(quinolin-4-yl)-5-(3-(trifluoromethyl)phenyl)-1,3,4-oxadiazole] | 1000 to 5000 nM | < 1000 nM | – | –
13 | O=[N+]([O-])c1ccccc1-c1nnc(-c2cccc(C(F)(F)F)c2)o1 [Entry 62, 2-(2-nitrophenyl)-5-(3-(trifluoromethyl)phenyl)-1,3,4-oxadiazole] | 1000 to 5000 nM | 1000 to 5000 nM | – | –
14 | FC(F)(F)c1ccc(-c2nnc(-c3ccc4ccccc4n3)o2)cc1 [Entry 48, 2-(quinolin-2-yl)-5-(4-(trifluoromethyl)phenyl)-1,3,4-oxadiazole] | – | – | i.a. | i.a.
15 | O=[N+]([O-])c1ccc(-c2nnc(-c3ccccc3[N+](=O)[O-])o2)cc1 [Entry 11, 2-(2-nitrophenyl)-5-(4-nitrophenyl)-1,3,4-oxadiazole] | 1000 to 5000 nM | 1000 to 5000 nM | – | –
16 | Clc1ccc(-c2nnc(-c3ccc(Cl)cc3)o2)cc1 [Entry 6] | < 1000 nM | < 1000 nM | – | –
17 | COc1ccc(-c2nnc(-c3ccc(C)o3)o2)cc1 [Entry 19, 2-(4-methoxyphenyl)-5-(5-methylfuran-2-yl)-1,3,4-oxadiazole] | < 1000 nM | < 1000 nM | – | –
18 | FC(F)(F)c1cccc(-c2nnc(-c3ccc4ccccc4n3)o2)c1 [Entry 60, 2-(quinolin-2-yl)-5-(3-(trifluoromethyl)phenyl)-1,3,4-oxadiazole] | 1000 to 5000 nM | 1000 to 5000 nM | – | –
19 | COc1ccc(-c2nnc(-c3cccc([N+](=O)[O-])c3)o2)cc1 [Entry 26, 2-(4-methoxyphenyl)-5-(3-nitrophenyl)-1,3,4-oxadiazole] | < 1000 nM | 1000 to 5000 nM | – | –
20 | Cc1ccc(-c2nnc(-c3ccco3)o2)cc1 [Entry 31, 2-(furan-2-yl)-5-(p-tolyl)-1,3,4-oxadiazole] | < 1000 nM | < 1000 nM | – | –
21 | CCCCOc1ccc(-c2nnc(-c3ccccc3Cl)s2)cc1 [Entry 1052, 2-(4-butoxyphenyl)-5-(2-chlorophenyl)-1,3,4-thiadiazole] | < 1000 nM | < 1000 nM | – | –

Further lines, results first:

Row | EC50 (ERRγ) | EC50 (ERRα) | EC50 (ERRγ) μM (ERRγ) | EC50 (ERRα) μM (ERRα) | SMILES
22 | 1000 to 5000 nM | < 1000 nM | – | – | COc1ccc(-c2nnc(-c3ccc(C(F)(F)F)cc3)s2)cn1 [Entry 1071, 2-(6-methoxypyridin-3-yl)-5-(4-(trifluoromethyl)phenyl)-1,3,4-thiadiazole]
23 | 1000 to 5000 nM | > 5000 nM | – | – | COC(=O)c1cccc(-c2nnc(-c3ccc(C(F)(F)F)cc3)s2)c1 [Entry 1064, methyl 3-(5-(4-(trifluoromethyl)phenyl)-1,3,4-thiadiazol-2-yl)benzoate]
24 | < 1000 nM | < 1000 nM | – | – | Clc1ccccc1-c1nnc(-c2cccc3ncccc23)s1 [Entry 1059, 2-(2-chlorophenyl)-5-(quinolin-5-yl)-1,3,4-thiadiazole]
25 | < 1000 nM | < 1000 nM | – | – | FC(F)(F)c1cccc(-c2nnc(-c3ccccn3)s2)c1 [Entry 1008, 2-(pyridin-2-yl)-5-(3-(trifluoromethyl)phenyl)-1,3,4-thiadiazole]
26 | < 1000 nM | < 1000 nM | – | – | Cc1ccc(-c2nnc(-c3ccccc3)s2)cc1 [Entry 1002, 2-phenyl-5-(p-tolyl)-1,3,4-thiadiazole]
27 | < 1000 nM | < 1000 nM | – | – | FC(F)(F)c1ccc(-c2nnc(-c3ccccn3)s2)cc1 [Entry 1009, 2-(pyridin-2-yl)-5-(4-(trifluoromethyl)phenyl)-1,3,4-thiadiazole]
28 | < 1000 nM | < 1000 nM | – | – | COc1cccc(-c2nnc(-c3ccccc3)s2)c1 [Entry 1012, 2-(3-methoxyphenyl)-5-phenyl-1,3,4-thiadiazole]
29 | 1000 to 5000 nM | > 5000 nM | – | – | Cc1cccc(-c2nnc(-c3cccc(C(F)(F)F)c3)s2)n1 [Entry 1073, 2-(6-methylpyridin-2-yl)-5-(3-(trifluoromethyl)phenyl)-1,3,4-thiadiazole]
30 | < 1000 nM | 1000 to 5000 nM | – | – | Cc1ccc(-c2nnc(-c3ccc(C)o3)s2)cc1 [Entry 1029, 2-(5-methylfuran-2-yl)-5-(p-tolyl)-1,3,4-thiadiazole]
31 | < 1000 nM | > 5000 nM | – | – | Cc1cccc(-c2nnc(-c3ccccc3Cl)s2)c1 [Entry 1041, 2-(2-chlorophenyl)-5-(m-tolyl)-1,3,4-thiadiazole]
32 | < 1000 nM | < 1000 nM | – | – | COc1ccc(-c2nnc(-c3ccccc3N)o2)cc1 [Entry 74, 2-(5-(4-methoxyphenyl)-1,3,4-oxadiazol-2-yl)aniline]
33 | < 1000 nM | < 1000 nM | – | – | Cc1ccc(-c2nnc(-c3ccc(B(O)O)cc3)s2)cc1 [Entry 1055, (4-(5-(p-tolyl)-1,3,4-thiadiazol-2-yl)phenyl)boronic acid]
34 | 1000 to 5000 nM | 1000 to 5000 nM | – | – | O=[N+]([O-])c1ccccc1-c1nnc(-c2ccccc2)o1 [Entry 80, 2-(2-nitrophenyl)-5-phenyl-1,3,4-oxadiazole]
35 | – | – | i.a. | i.a. | Cc1ccc(C(=O)Nc2nnc(-c3ccccc3Cl)s2)cc1 [Entry 1034, N-(5-(2-chlorophenyl)-1,3,4-thiadiazol-2-yl)-4-methylbenzamide]
36 | < 1000 nM | < 1000 nM | – | – | Cc1ccc(-c2nnc(-c3cccc(Cl)c3)s2)cc1 [Entry 1045, 2-(3-chlorophenyl)-5-(p-tolyl)-1,3,4-thiadiazole]
37 | < 1000 nM | > 5000 nM | – | – | Cc1ccc(-c2nnc(-c3cnn(-c4ccccc4)c3)s2)cc1 [Entry 1053, 2-(1-phenyl-1H-pyrazol-4-yl)-5-(p-tolyl)-1,3,4-thiadiazole]
38 | < 1000 nM | < 1000 nM | – | – | Cc1ccc(-c2nnc(-c3cccc4ncccc34)s2)cc1 [Entry 1058, 2-(quinolin-5-yl)-5-(p-tolyl)-1,3,4-thiadiazole]
39 | < 1000 nM | < 1000 nM | – | – | COc1ccc(-c2nnc(-c3ccccc3)s2)c([N+](=O)[O-])c1 [Entry 1036, 2-(4-methoxy-2-nitrophenyl)-5-phenyl-1,3,4-thiadiazole]
